# Test results taken from PubChem BioAssay (NCI).
# Where “and” joins values, the source holds several entries; their conditions need not be identical. Identical values can stand only once.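 Interpolation was linear, between the two tested concentrations surrounding the appropriate level; five concentrations were tested over 48 hours in 96-well plates. GI50 is the concentration that inhibits growth by half. TGI denotes the concentration required for complete inhibition of growth.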
# How the values were obtained:
# Test in all cases: DTP human tumour cell line panel, 48 h
# COLO 205 colon = system: COLO 205 colon
# HCC-2998 colon = system: HCC-2998 colon
# HCT-116 colon = system: HCT-116 colon
# HOP-92 NSCLC = system: HOP-92 NSCLC
# OVCAR-3 ovarian = system: OVCAR-3 ovarian
# SK-MEL-2 melanoma = system: SK-MEL-2 melanoma
# SK-OV-3 ovarian = system: SK-OV-3 ovarian
# SR leukemia = system: SR leukemia
# U251 CNS = system: U251 CNS
# UO-31 renal = system: UO-31 renal
Molecule,GI50 (COLO 205 colon),TGI (COLO 205 colon),GI50 (HCC-2998 colon),TGI (HCC-2998 colon),GI50 (HCT-116 colon),TGI (HCT-116 colon),GI50 (HOP-92 NSCLC),TGI (HOP-92 NSCLC),GI50 (OVCAR-3 ovarian),TGI (OVCAR-3 ovarian),GI50 (SK-MEL-2 melanoma),TGI (SK-MEL-2 melanoma),GI50 (SK-OV-3 ovarian),TGI (SK-OV-3 ovarian),GI50 (SR leukemia),TGI (SR leukemia),GI50 (U251 CNS),TGI (U251 CNS),GI50 (UO-31 renal),TGI (UO-31 renal)
Cn1cc(-c2nc(N[C@@H]3CCCC[C@@H]3N)c(F)c3c2C(=O)NC3)cn1,1.41 µM and 1.63 µM,3.99 µM and 4.13 µM,26.6 µM and 28.2 µM,> 100 µM,3.66 µM and 4.67 µM,47.7 µM and > 83.3 µM,3.62 µM and 4.47 µM,23.9 µM and 29.1 µM,15.1 µM and 15.6 µM,42.1 µM and 38.7 µM,20.5 µM and 24.9 µM,> 100 µM,4.06 µM and 3.77 µM,40.1 µM and 43.8 µM,2.26 µM and 2.92 µM,31.9 µM and 36 µM,15.3 µM,33.9 µM and 36.3 µM,5.74 µM and 7.49 µM,19.7 µM and 21.1 µM
O=C(/C=C/c1ccco1)c1ccc(Nc2nc(Nc3ccc(F)cc3)nc(Nc3ccc(F)cc3)n2)cc1,7.04 µM,26.1 µM,36 µM,> 100 µM,21 µM,> 100 µM,4.17 µM,41.6 µM,16.9 µM,45.9 µM,39 µM,> 100 µM,32 µM,> 100 µM,2.37 µM,5.84 µM,21.6 µM,42.2 µM,14.7 µM,37.2 µM
Cc1ccc(S(=O)(=O)NC(CO)C(=O)O)cc1 (configuration not stated),,> 100 µM,,> 100 µM,,> 100 µM,,> 100 µM,,> 100 µM,,> 100 µM,,> 100 µM,,> 100 µM,,> 100 µM,,> 100 µM
CC(C)N1C(C)[C@@H](c2ccccc2)O[P@]1(=O)CC1=CCCCC1 (some centres not stated),,> 100 µM,,> 100 µM,,> 100 µM,,99.6 µM,,> 100 µM,,> 100 µM,,> 100 µM,,> 100 µM,,> 100 µM,,> 100 µM
Cc1c(Cl)c(C)c(Cc2c(C)c(Cl)c(C)c(Cl)c2O)c(O)c1Cl,3.04 µM,9.24 µM,3.8 µM,11.6 µM,2.42 µM,10.5 µM,1.16 µM,4.74 µM,3.28 µM,11.2 µM,2.85 µM,9.73 µM,2.68 µM,9.46 µM,3.4 µM,12.4 µM,3.1 µM,10.9 µM,3.09 µM,11.6 µM
O=C(C=C=Nc1ccccc1)C(=O)N=C=Cc1ccccc1,1.89 µM,3.87 µM,4.04 µM,9.49 µM,1.55 µM,3.84 µM,5.57 µM,20.1 µM,1.48 µM,2.97 µM,1.49 µM,8.36 µM,20.3 µM,68 µM,0.298 µM,> 100 µM,5.27 µM,17.3 µM,1.63 µM,3.82 µM
COc1ccc2c(c1)c1c3n2CCNN=C3CCC1,,> 100 µM,,> 100 µM,,> 100 µM,,> 100 µM,,> 100 µM,,> 100 µM,,> 100 µM,,> 100 µM,,> 100 µM,,> 100 µM
O=C(/C=C/c1cccc2ccccc12)Nc1ncc(Cc2ccccc2)s1,1.48 µM,> 100 µM,2.57 µM,> 100 µM,0.46 µM,11.6 µM,0.371 µM,4.73 µM,0.738 µM,3.22 µM,1.41 µM,> 100 µM,1.71 µM,> 29.9 µM,0.866 µM,> 100 µM,0.818 µM,4.67 µM,1.39 µM,3.98 µM
H-QIYKKYRTWYRKAWKVLGKV-NH2,4.3 µM,80.7 µM,17.5 µM,63.4 µM,10.8 µM,77.1 µM,1.95 µM,4.81 µM,4.3 µM,22.3 µM,16.5 µM,49.8 µM,11.3 µM,30.5 µM,3.58 µM,> 100 µM,12 µM,> 100 µM,19.2 µM,39.5 µM
COc1cc(-c2cc(=O)c3c(O)c(OC)c(OC)c(OC)c3o2)cc(OC)c1OC,,> 100 µM,,> 100 µM,,> 44.9 µM,,27.3 µM,,> 100 µM,,> 100 µM,,26 µM,,> 100 µM,,> 22.2 µM,,> 100 µM
Cc1ccc(/C=N/NS(=O)(=O)c2ccccc2)c(C)c1,,> 100 µM,,> 100 µM,,> 100 µM,,> 100 µM,,> 100 µM,,> 100 µM,,> 100 µM,,> 100 µM,,> 100 µM,,> 100 µM
Cc1cc(Nc2nc(-c3ccncc3)nc3ccccc23)n[nH]1,2.17 µM,6.4 µM,29.6 µM,> 100 µM,1.99 µM,> 100 µM,4.39 µM,> 100 µM,9.26 µM,> 100 µM,34.3 µM,> 100 µM,3.45 µM,> 100 µM,1.72 µM,47.7 µM,4.1 µM,> 100 µM,1.23 µM,> 100 µM
O=C1/C(=C\c2ccccc2)C2OCC=C3CN4CCC56c7ccccc7N1C5C2C3CC46 (configuration not stated),17.3 µM,> 100 µM,4.93 µM,> 100 µM,6 µM,> 100 µM,6.27 µM,86.8 µM,36.5 µM,> 100 µM,3.78 µM,18.4 µM,> 100 µM,> 100 µM,2.65 µM,8.76 µM,13.1 µM,> 100 µM,4.04 µM,> 100 µM
CC(N1CCOCC1)C(O)(c1ccccc1)c1ccccn1 (configuration not stated),,> 100 µM,,38.9 µM,,> 100 µM,,> 100 µM,,> 100 µM,,> 100 µM,,> 100 µM,,> 100 µM,,> 100 µM,,> 100 µM
NC(=O)c1ccc(N(C(N)=O)c2c(F)cccc2F)nc1-c1ccc(F)cc1F,> 100 µM,> 100 µM,> 100 µM,> 100 µM,> 100 µM,> 100 µM,28 µM,> 100 µM,> 100 µM,> 100 µM,> 100 µM,> 100 µM,> 100 µM,> 100 µM,> 100 µM,> 100 µM,> 100 µM,> 100 µM,> 100 µM,> 100 µM
Nc1c(C(=O)Nc2cccc3ccccc23)sc2nc3c(cc12)C(=O)CCC3,0.15 µM,0.418 µM,0.3 µM,,0.327 µM,> 100 µM,2.92 µM,> 100 µM,0.229 µM,0.696 µM,0.0915 µM,19.1 µM,0.173 µM,7.65 µM,0.38 µM,> 100 µM,0.266 µM,,0.636 µM,> 95.6 µM
C=CC(C)(O)CC/C=C(\CO)C(=O)OC1C(C)OC(O[C@](C)(C=C)CC/C=C(\CO)C(=O)O[C@H]2C[C@@]3(C(=O)OC4OC(CO)C(O)C(O)C4OC4OC(C)C(OC5OC(CO)C(O)C5O)C(OC5OC(CO)C(O)C(O)C5O)C4O)C(CC2(C)C)C2=CCC4[C@@]5(C)CC[C@H](OC6OC(COC7OC(C)C(O)C(O)C7OC7OCC(O)C(O)C7O)C(O)C(O)C6NC(C)=O)C(C)(C)C5CC[C@@]4(C)[C@]2(C)C[C@H]3O)C(O)C1O (some centres not stated),0.168 µM,0.927 µM,0.0688 µM,0.195 µM,0.143 µM,6.93 µM,0.0736 µM,0.794 µM,0.0947 µM,0.344 µM,0.229 µM,1.5 µM,0.203 µM,0.794 µM,1.59 µM,15.1 µM,0.101 µM,0.45 µM,0.234 µM,0.966 µM
O=Cc1ccc(N2CCN(c3ccc(C=O)cc3)CC2)cc1,> 100 µM,> 100 µM,60.8 µM,> 100 µM,71.5 µM,> 100 µM,> 100 µM,> 100 µM,> 100 µM,> 100 µM,> 100 µM,> 100 µM,> 100 µM,> 100 µM,> 100 µM,> 100 µM,> 100 µM,> 100 µM,> 100 µM,> 100 µM
CC(/C=N/N=C(N)N)=N\N=C(N)N,4.26 µM,33.1 µM and 21.5 µM,9.52 µM,> 48.3 µM and 62.7 µM,52.1 µM,1370 µM,54.4 µM,62.5 µM,11.1 µM,130 µM,28.9 µM,149 µM,,546 µM,1.95 µM,333 µM,47.7 µM,403 µM,11 µM,552 µM
